“Also recorded” adds a separate entry of the source.
Experiments:
[1] = mouse, in vivo, po, 15 mg/kg
Procedure: In another exemplary method, oral administration of AEOL11207 was examined for efficiently to penetrate the blood-brain barrier (BBB) and brain mitochondria. To determine if AEOL11207 penetrates the BBB, preliminary studies were conducted in mice following injection of AEOL 11207. Mice were given a single dose of the compound (15 mg/kg, p.o. AEOL 11207) or vehicle (control). At various times after injection, mice were perfused and brains (cortex) and plasma were extracted with methanol and samples analyzed by an HPLC method as described previously. […] FIGS. 3A and 3B illustrate plasma and brain concentrations of AEOL11207 following s.c. or p.o. administration. […]
FIGS. 3A-3B illustrate exemplary concentrations of AEOL11207 in the plasma (3A) and brains (3B) of the C57BL/6 mice at different times points after a single dose of AEOL11207 (15 mg/kg) administered by the s.c or p.o. route. […] FIG. 3C illustrates an exemplary chromatogram of AEOL 11207 levels measured by HPLC with UV detection at 450 nm in mitochondrial fractions of mouse forebrain 24 hr after AEOL11207 15 mg/kg s.c. as previously described. Recovery of AEOL11207 from mitochondrial samples was determined to be ˜98%. […]
Determination of metalloporphyrin levels AEOL11207 was measured by HPLC-UV following previously described methods (Liang, et al. (2007) J Neurosci 27, 4326-33).

[2] = system: parietal cortex of Sod2−/− mice; assay: Histochemical analyses (H&E, Fluoro-Jade B) of Sod2−/− mouse brain; type: in vivo
[3] = system: mouse lymphoma; assay: Mouse lymphoma test (mutagenicity); type: cell-based
Excerpt: Safety profile: A prototypical metalloporphyrin (AEOL10150; FIG. 1) has completed phase 1 trials in amyotrophic lateral sclerosis patients. Extensive safety studies of this compound have been completed in mice, monkeys and rats. […] Safety studies for the structurally related compound, AEOL11207 need to be completed once its efficacy is established in animal studies.

[4] = system: paraquat (PQ2+)-induced cell injury; assay: Paraquat (PQ2+)-induced cell injury assay; type: cell-based; settings: data not shown
[5] = system: B6D2F2 Sod2−/− mice; assay: Behavioral seizure evaluation and survival of Sod2−/− mice
Excerpt: The model utlizes cross-bred C57BL6XDBA2F2 (B6D2) mutant mice lacking manganese superoxide dismutase (MnSOD or Sod2), a critical mitochondrial antioxidant.
Chronic Video Monitoring and Seizure Scoring: Sod2−/− mice and wild type littermates aged P7-˜P21 are digitally recorded 8 hrs/day in a custom designed plexiglass cage using a Q-See QD14B video monitoring system connected to a recordable DVD. DVD recordings are saved and reviewed by a trained observer blind to genotype and/or treatment for scoring of seizure severity, duration, and frequency. Seizure severity will be rated using the following scale: 1=immobilization & staring, 2=head-nodding, occasional forelimb clonic and tonic activity, 3=continuous forelimb clonic and tonic activity, 4=generalized seizures with falling, running and jumping.
The mutant mice were monitored on a daily basis to get an accurate birth and death data. Pups were not culled or handled before P5 to avoid maternal rejection.
Metalloporphyrin (AEOL11207) administration B6D2F1 Sod2−/− mice and their wild-type littermates (control mice) were treated with AEOL11207 (5 mg/kg) or vehicle by subcutaneous (s.c.) injection daily starting at 5 days of age until death or being sacrificed. AEOL11207 was dissolved in dimethyl sulfoxide (DMSO) and diluted with sterilized phosphate buffered saline (PBS) to achieve the desired final concentration (1% DMSO). The control animals were injected with sterilized PBS containing 1% DMSO. The animals were divided into four different groups: 1) control mice +vehicle; 2) B6D2F1 Sod2−/− mice+vehicle; 3) control mice +AEOL11207; 4) B6D2F1 Sod2−/− mice +AEOL11207. The treated and untreated mice were sacrificed at 15-16 days old for pathology and biochemistry assays or until death for survival and seize behavioral evaluation.
During the weaning period (P15-P18) mice were recorded in the presence of their mothers, and individually thereafter. Video was digitally recorded (Panasonic DMR-ES 15) and stored on DVD-R′s for observation and quantification of seizure number, duration, frequency, and severity by an observer blind to treatments. Seizure severity was scored according to the following scale: 1=immobilization and staring, 2=head-nodding, shaking, 3=forelimb tonic/clonic activity, 4=continuous forelimb tonic/clonic activity with falling, running or jumping. Due to the presence of abnormal gait and posturing in Sod2^−/− mice, only spontaneous motor seizures with scores>3 were included for comparison between groups. The scoring and analysis was conducted by an investigator blinded to genotype and treatment.
Statistical analyses Survival analysis was performed using the Kaplan-Meier method. […] P values less than 0.05 were considered significant.

[6] = system: Wild-type mice; assay: Tolerability in wild-type mice; type: in vivo; settings: 5 mg/kg daily, up to 20 days of treatment
[7] = Sod2−/− mice, 5 mg/kg s.c. daily from P5, vs vehicle, 5 mg/kg

With `COC(=O)c1c2nc(c(C(F)(F)F)c3ccc([n-]3)c(C(=O)OC)c3nc(c(C(F)(F)F)c4ccc1[n-]4)C=C3)C=C2.[Cl-].[Mn+3]` [AEOL11207] the “estimated concentration in the brain” value [1] was “within the protective range”, the “Histopathological damage including vacuole size and number” value ([2]; H&E staining, Sod2−/− mice P15-16) was “decreased” and the “neuronal degeneration (Fluoro-Jade B staining)” value ([2]; compared to vehicle treatment) was “Significant protection”. For the same compound, the “attenuation of Fluoro-Jade B relative fluorescence density” value ([2]; parietal cortex of Sod2−/− mice, compared to vehicle treatment) was about 50%, the “mutagenicity, mouse lymphoma test” value [3] was “negative” and the protective range [4] was 30 to 100 nM. For the same compound, the “Sod2−/− mice surviving beyond 15 days old” value ([5]; 5 mg/kg daily, vehicle ~48%) was “all”, the “Sod2−/− mice exhibiting spontaneous tonic-clonic seizures” value ([5]; P15-P20, daily observation, all vehicle-treated mice) was 37% and the “frequency of spontaneous behavioral seizures” value [5, 7] was “significantly decreased; also recorded: decrease; also recorded: significantly attenuates”. The seizure severity [5, 7] was “but not seizure duration or severity; also recorded: no significant changes”, the “total number of spontaneous behavioral seizures” value [5, 7] was “decrease; also recorded: significantly attenuates” and the average lifespan ([5]; Sod2−/− mice, 5 mg/kg s.c. daily starting at 5 days of age, 5 mg/kg) was 20.33 ± 2.00 days. For the same compound, the average lifespan ([5]; Sod2−/− mice, 5 mg/kg s.c. daily starting at 5 days of age, listed as AEOL 11207, 5 mg/kg) was 20.383 ± 0.43 days, the average lifespan ([5]; Sod2−/− mice, daily treatment 2.5 mg/kg) was “no significant increase” and the “behavioral seizure characteristics / seizure parameters” value ([5]; Sod2−/− mice, s.c. from postnatal day 5) was “attenuates; also recorded: significantly attenuated; also recorded: ameliorates”. The ill effects [6] was “no ill effects” and the mortality [6] was “no mortality”.
